Reference: article PMC9090415, “Discovery of small molecule inhibitors of Plasmodium falciparum apicoplast DNA polymerase” (Journal of Enzyme Inhibition and Medicinal Chemistry, 2022)

Biological target: P. falciparum apicoplast DNA polymerase (Pf-apPOL) (Plasmodium falciparum, UniProt Q8ILY1)
Test: Fluorescence-based high-throughput DNA polymerase assay (molecular beacon), primary screen and dose-response
Assay type: biochemical
In short: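 Single-point screening used 10 µM compound with 20 nM polymerase, 20 nM hairpin substrate and 6 µM dNTPs for 90 min at 25 °C. Confirmatory titrations (2.5–80 µM) followed fluorescence at three times, and IC50 was derived from a fit including a cooperativity term n.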

[1] = primary screen value of the 186 hits; unit not given; 90 min, 10 µM

Sequence of P. falciparum apicoplast DNA polymerase (Pf-apPOL) (Q8ILY1 entry or part of it): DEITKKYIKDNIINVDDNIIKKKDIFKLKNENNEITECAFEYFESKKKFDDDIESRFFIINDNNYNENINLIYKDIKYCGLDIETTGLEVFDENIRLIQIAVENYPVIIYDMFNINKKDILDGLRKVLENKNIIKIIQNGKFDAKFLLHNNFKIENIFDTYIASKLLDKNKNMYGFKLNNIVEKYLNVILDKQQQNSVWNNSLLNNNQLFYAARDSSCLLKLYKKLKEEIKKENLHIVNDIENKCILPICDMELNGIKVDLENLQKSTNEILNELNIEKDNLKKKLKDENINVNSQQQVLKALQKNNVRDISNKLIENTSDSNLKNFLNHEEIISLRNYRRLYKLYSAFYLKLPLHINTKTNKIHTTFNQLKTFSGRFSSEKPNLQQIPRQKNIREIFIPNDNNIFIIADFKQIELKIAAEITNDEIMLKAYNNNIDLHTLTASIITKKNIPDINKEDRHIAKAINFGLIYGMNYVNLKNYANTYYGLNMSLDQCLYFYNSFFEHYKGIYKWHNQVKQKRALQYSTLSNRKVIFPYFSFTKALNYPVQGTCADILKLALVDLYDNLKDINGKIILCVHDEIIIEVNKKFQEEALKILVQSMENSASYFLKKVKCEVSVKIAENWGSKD

## O=C(O)c1ccc(-c2nc3cc(-c4ccc5nc(-c6ccc(C(=O)O)cc6)[nH]c5c4)ccc3[nH]2)cc1 [Molecule 1, OC(=O)c1ccc(cc1)c1nc2c([nH]1)cc(cc2)c1ccc2c(c1)nc([nH]2)c1ccc(cc1)C(=O)O]
DRC-1; 10'; concentration 2.5
  % inhibition Apo pol 10': 4.605%
DRC-1; 10'; concentration 5
  % inhibition Apo pol 10': 47.5072%
DRC-1; 10'; concentration 10
  % inhibition Apo pol 10': 71.1755%
DRC-1; 10'; concentration 20
  % inhibition Apo pol 10': 72.8856%
DRC-1; 10'; concentration 40
  % inhibition Apo pol 10': 63.5867%
DRC-1; 10'; concentration 80
  % inhibition Apo pol 10': 67.7005%
DRC-1; 90'; concentration 2.5
  % inhibition Apol 90': 3.724%
DRC-1; 90'; concentration 5
  % inhibition Apol 90': 40.2973%
DRC-1; 90'; concentration 10
  % inhibition Apol 90': 67.3465%
DRC-1; 90'; concentration 20
  % inhibition Apol 90': 73.5196%
DRC-1; 90'; concentration 40
  % inhibition Apol 90': 66.9827%
DRC-1; 90'; concentration 80
  % inhibition Apol 90': 77.5146%
DRC-1; 180'; concentration 2.5
  % inhibition apPOL 180': 2.544%
DRC-1; 180'; concentration 5
  % inhibition apPOL 180': 30.2265%
DRC-1; 180'; concentration 10
  % inhibition apPOL 180': 61.3297%
DRC-1; 180'; concentration 20
  % inhibition apPOL 180': 73.7422%
DRC-1; 180'; concentration 40
  % inhibition apPOL 180': 70.4852%
DRC-1; 180'; concentration 80
  % inhibition apPOL 180': 81.7521%
DRC-2, 5', concentration 2.5 (unit not given)
  % inhibition Apo pol 5': 30%
DRC-2, 5', concentration 20 (unit not given)
  % inhibition Apo pol 5': 37%
DRC-2, 5', concentration 40 (unit not given)
  % inhibition Apo pol 5': 37%
DRC-2, 40', concentration 2.5 (unit not given)
  % inhibition Apol 40': 30%
DRC-2, 40', concentration 10 (unit not given)
  % inhibition Apol 40': 32%
DRC-2, 40', concentration 20 (unit not given)
  % inhibition Apol 40': 41%
DRC-2, 40', concentration 80 (unit not given)
  % inhibition Apol 40': 32%
DRC-2, 90', concentration 80 (unit not given)
  % inhibition ApPOL 90': 41%
DRC-2, 180', concentration 20 (unit not given)
  % inhibition apPOL 180': 37%
DRC-2; 5'; concentration 2.5
  % inhibition Apo pol 5': 30%
DRC-2; 5'; concentration 5
  % inhibition Apo pol 5': 7%
DRC-2; 5'; concentration 10
  % inhibition Apo pol 5': 33%
DRC-2; 5'; concentration 20
  % inhibition Apo pol 5': 37%
DRC-2; 5'; concentration 40
  % inhibition Apo pol 5': 37%
DRC-2; 5'; concentration 80
  % inhibition Apo pol 5': 22%
DRC-2; 40'; concentration 2.5
  % inhibition Apol 40': 30%
DRC-2; 40'; concentration 5
  % inhibition Apol 40': 4%
DRC-2; 40'; concentration 10
  % inhibition Apol 40': 32%
DRC-2; 40'; concentration 20
  % inhibition Apol 40': 41%
DRC-2; 40'; concentration 40
  % inhibition Apol 40': 48%
DRC-2; 40'; concentration 80
  % inhibition Apol 40': 32%
DRC-2; 90'; concentration 2.5
  % inhibition ApPOL 90': 25%
DRC-2; 90'; concentration 5
  % inhibition ApPOL 90': 1.89%
DRC-2; 90'; concentration 10
  % inhibition ApPOL 90': 28%
DRC-2; 90'; concentration 20
  % inhibition ApPOL 90': 40%
DRC-2; 90'; concentration 40
  % inhibition ApPOL 90': 53%
DRC-2; 90'; concentration 80
  % inhibition ApPOL 90': 41%
DRC-2; 180'; concentration 2.5
  % inhibition apPOL 180': 14%
DRC-2; 180'; concentration 5
  % inhibition apPOL 180': -1.88%
DRC-2; 180'; concentration 10
  % inhibition apPOL 180': 20%
DRC-2; 180'; concentration 20
  % inhibition apPOL 180': 37%
DRC-2; 180'; concentration 40
  % inhibition apPOL 180': 56%
DRC-2; 180'; concentration 80
  % inhibition apPOL 180': 49%
[1]
  DNA Pol: 68
Primary screen value, head "DNA Pol", unit not given; 90 min, 10 µM
  DNA Pol: 68

## CCc1ccccc1NC(=O)c1ccc(-c2ncccc2NC(C)=O)cc1 [KU0203112]
DRC-1; concentration 2.5; 10'
  % inhibition Apo pol 10': 16.2237%
DRC-1; concentration 2.5; 90'
  % inhibition Apol 90': 2.255%
DRC-1; concentration 2.5; 180'
  % inhibition apPOL 180': -4.969%
DRC-1; concentration 5; 10'
  % inhibition Apo pol 10': 20.5956%
DRC-1; concentration 5; 90'
  % inhibition Apol 90': 6.528%
DRC-1; concentration 5; 180'
  % inhibition apPOL 180': -1.7806%
DRC-1; concentration 10; 10'
  % inhibition Apo pol 10': 40.7013%
DRC-1; concentration 10; 90'
  % inhibition Apol 90': 22.2992%
DRC-1; concentration 10; 180'
  % inhibition apPOL 180': 9.63%
DRC-1; concentration 20; 10'
  % inhibition Apo pol 10': 66.0159%
DRC-1; concentration 20; 90'
  % inhibition Apol 90': 44.8534%
DRC-1; concentration 20; 180'
  % inhibition apPOL 180': 25.9288%
DRC-1; concentration 40; 10'
  % inhibition Apo pol 10': 83.2179%
DRC-1; concentration 40; 90'
  % inhibition Apol 90': 72.954%
DRC-1; concentration 40; 180'
  % inhibition apPOL 180': 58.4495%
DRC-1; concentration 80 (unit not given); 10'
  % inhibition Apo pol 10': 89.6121%
DRC-1; concentration 80; 90'
  % inhibition Apol 90': 90.3611%
DRC-1; concentration 80; 180'
  % inhibition apPOL 180': 89.009%
DRC-2; 90'; concentration 40
  % inhibition ApPOL 90': 70%
DRC-2; 180'; concentration 40
  % inhibition apPOL 180': 70%
DRC-2; concentration 2.5; 5'
  % inhibition Apo pol 5': 0.547%
DRC-2; concentration 2.5; 40'
  % inhibition Apol 40': 0.556%
DRC-2; concentration 2.5; 90'
  % inhibition ApPOL 90': -1.65%
DRC-2; concentration 2.5; 180'
  % inhibition apPOL 180': -5.44%
DRC-2; concentration 5; 5'
  % inhibition Apo pol 5': 5.51%
DRC-2; concentration 5; 40'
  % inhibition Apol 40': 7%
DRC-2; concentration 5; 90'
  % inhibition ApPOL 90': 5.44%
DRC-2; concentration 5; 180'
  % inhibition apPOL 180': -1.68%
DRC-2; concentration 10; 5'
  % inhibition Apo pol 5': 27%
DRC-2; concentration 10; 40'
  % inhibition Apol 40': 28%
DRC-2; concentration 10; 90'
  % inhibition ApPOL 90': 25%
DRC-2; concentration 10; 180'
  % inhibition apPOL 180': 14%
DRC-2; concentration 20; 5'
  % inhibition Apo pol 5': 43%
DRC-2; concentration 20; 40'
  % inhibition Apol 40': 54%
DRC-2; concentration 20; 90'
  % inhibition ApPOL 90': 52%
DRC-2; concentration 20; 180'
  % inhibition apPOL 180': 41%
DRC-2; concentration 40; 5'
  % inhibition Apo pol 5': 50%
DRC-2; concentration 40; 40'
  % inhibition Apol 40': 68%
DRC-2; concentration 40; 90'
  % inhibition ApPOL 90': 70%
DRC-2; concentration 40; 180'
  % inhibition apPOL 180': 70%
DRC-2; concentration 80; 5'
  % inhibition Apo pol 5': 47%
DRC-2; concentration 80; 40'
  % inhibition Apol 40': 69%
DRC-2; concentration 80; 90'
  % inhibition ApPOL 90': 74%
DRC-2; concentration 80; 180'
  % inhibition apPOL 180': 77%
[1]
  DNA Pol: 26
Primary screen value; head prints only 'DNA Pol'; 90 min, 10 µM
  DNA Pol: 26
